Measured values reported in US20200231562A1, “NOVEL MACROLIDE ANTIBIOTICS” (HELMHOLTZ-ZENTRUM FÜR INFEKTIONSFORSCHUNG GMBH, priority 2014, published 2020).
In brackets after ≈: the same amount, converted by molar mass. Read-outs that look alike come from different tables or passages of the source. Marks after values point to notes of the source that are not given here.

What was measured:
[1] = tested on: S. aureus N315 wildtype (WT); assay: Susceptibility (MIC) of S. aureus N315 wildtype; assay type: cell-based; settings: Staphylococcus aureus
[2] = tested on: S. aureus N315 mutant Mt50DscA.5; assay: Susceptibility (MIC) of Disciformycin A-resistant mutant; assay type: cell-based; settings: Staphylococcus aureus
[3] = tested on: S. aureus N315 mutant Mt50DscA.1; assay: as above; assay type: cell-based; settings: Staphylococcus aureus
[4] = tested on: S. aureus N315 mutant Mt50DscA.6; assay: as above; assay type: cell-based; settings: Staphylococcus aureus
[5] = tested on: S. aureus N315 mutant Mt50DscA.3; assay: as above; assay type: cell-based; settings: Staphylococcus aureus
[6] = tested on: Bacillus subtilis DSM 10; assay: MIC by microbroth dilution; assay type: cell-based; settings: 16 h, 30° C., n.i. = no inhibition up to 67 μg/ml
Method: (§1) Bacterial strains. Bacterial wildtype strains used in susceptibility assays were either part of HZI's strain collection or purchased from the German Collection of Microorgansims and Cell Cultures (Deutsche Sammlung von Mikroorganismen und Zellkulturen, DSMZ).
(§2) Minimum inhibitory concentration (MIC) was determined by microbroth dilution. In brief, overnight cultures of bacteria (EBS medium) were diluted to OD600 0.01. Disciformycin A (1) or B (2) dissolved in DMSO was added directly to the cultures in 96-well plates (Sarstedt, flat bottom) in duplicate and the compound was tested in serial dilution. […] After 16 h incubation at 900 rpm and 30° C. on a microplate shaker (Titramax, Heidolph) absorbance at 600 nm was measured using a microplate reader (POLARstar Omega, BMG Labtech). MIC values were determined by sigmoidal curve fitting.

[7] = tested on: Micrococcus luteus DSM 20030; assay: MIC by microbroth dilution; assay type: cell-based; settings: 16 h, 30° C., n.i. = no inhibition up to 67 μg/ml
Method: as §1, §2

[8] = tested on: Staphylococcus aureus DSM 346; assay: MIC by microbroth dilution; assay type: cell-based; settings: 16 h, 30° C., n.i. = no inhibition up to 67 μg/ml
Method: as §1, §2

[9] = tested on: Mycobacterium diemhoferi DSM 43524; assay: MIC by microbroth dilution; assay type: cell-based; settings: 16 h, 30° C., n.i. = no inhibition up to 67 μg/ml
Method: as §1, §2

[10] = tested on: Paenibacillus polymyxa DSM 36; assay: MIC by microbroth dilution; assay type: cell-based; settings: 16 h, 30° C., n.i. = no inhibition up to 67 μg/ml
Method: as §1, §2

[11] = tested on: Chromobacterium violaceum DSM 30191; assay: MIC by microbroth dilution; assay type: cell-based; settings: 16 h, 30° C., n.i. = no inhibition up to 67 μg/ml
Method: as §1, §2

[12] = tested on: Mycobacterium sp. DSM 43270; assay: MIC by microbroth dilution; assay type: cell-based; settings: 16 h, 30° C., n.i. = no inhibition up to 67 μg/ml
Method: as §1, §2

[13] = tested on: Nocardioides simplex DSM 20130; assay: MIC by microbroth dilution; assay type: cell-based; settings: 16 h, 30° C., n.i. = no inhibition up to 67 μg/ml
Method: as §1, §2

[14] = tested on: Escherichia coli DSM 1116; assay: MIC by microbroth dilution; assay type: cell-based; settings: 16 h, 30° C., n.i. = no inhibition up to 67 μg/ml
Method: as §1, §2

[15] = tested on: Staphylococcus aureus (MRSA) DSM-11822; assay: MIC by microbroth dilution; assay type: cell-based; settings: Staphylococcus aureus, 16 h
Method: as §1, §2

[16] = tested on: S. aureus N315 mutant Mt50DscA.4; assay: Susceptibility (MIC) of Disciformycin A-resistant mutant; assay type: cell-based; settings: Staphylococcus aureus
[17] = tested on: S. aureus N315 mutant Mt50DscA.11; assay: as above; assay type: cell-based; settings: Staphylococcus aureus
[18] = tested on: S. aureus N315 mutant Mt50DscA.8; assay: as above; assay type: cell-based; settings: Staphylococcus aureus
[19] = tested on: S. aureus Newman in PMA-differentiated human THP-1 cell line (macrophages); assay: Intra-macrophage activity; assay type: cell-based; settings: at 8×MIC, 18 h, MOI 10, cfu counting
Excerpt: The PMA-differentiated human THP-1 cell line (macrophages) was used as cellular host for infection with S. aureus Newman at an MOI (multiplicity of infection) of 10. […] Intracellular bacteria were recovered and serial dilutions were streaked out on CASO-Agar for cfu counting. The reference drug rifampicin reduced the number of intracellular bacteria by ca. 4 logs (at 8×MIC).

[20] = tested on: S. aureus N315 Mt50DscA.9; assay: Susceptibility (MIC) of Disciformycin A-resistant mutant; assay type: cell-based; settings: Staphylococcus aureus
[21] = tested on: S. aureus N315 mutant Mt50DscA.2; assay: as above; assay type: cell-based; settings: Staphylococcus aureus
[22] = tested on: S. aureus N315 mutant Mt50DscA.10; assay: as above; assay type: cell-based; settings: Staphylococcus aureus
[23] = tested on: leukemic Mono Mac 6 cells; assay: MTT assay, cytotoxic activity; assay type: cell-based, human; settings: incubation 24 or 48 hours
Method: (§3) The cytotoxic activity of gulmirecin A (3) and gulmirecin B (4) against human cells was evaluated in the well-established MTT assay using primary monocytes from human peripheral blood as well as transformed lung epithelial cell A-549 cell and leukemic Mono Mac 6 cells. Furthermore, 3 and 4 were tested against K-562, HUVEC, and HeLa cells.
(§4) The human monocytic cell line Mono Mac 6 was cultured in RPMI 1640 medium supplemented with FCS (10%, v/v), penicillin (100 U/ml), streptomycin (100 μg/ml), insulin (10 μg/ml), oxaloacetic acid (1 mM), sodium pyruvate (1 mM), and 1× non-essential amino acids at 37° C. and 5% CO2. A-549 cells (DSM ACC-107) were cultured in DMEM high glucose (4.5 g/l) medium supplemented with FCS (10% v/v), penicillin (100 U/ml) and streptomycin (100 μg/ml) at 37° C. in a 5% CO2 incubator. K-562 (DSM ACC 10) and HeLa cells (DSM ACC 57) were grown in RPMI 1640, whereas cells of HUVEC (ATCC CRL-1730) were cultured in DMEM medium. The respective media were supplemented with ultraglutamine 1 (10 ml/l), gentamicin sulfate (500 μl/l), and FCS (10% v/v).
Cells (3×10^5 Mono Mac 6, 1×10^5 A-549 cells, or 2×10^6 monocytes per well) were seeded in a 96-well plate in the respective medium (100 μl/well). Monocytes were allowed to adhere for 1.5 hours (37° C., 5% CO2) prior to treatment. […] Then, 20 μl of thiazolyl blue tetrazolium bromide (MTT, 5 mg/ml PBS) were added, and the incubation was continued at 37° C., 5% CO2 until blue staining of the vehicle control. Formazan formation was stopped by adding 100 μl of lysis buffer (SDS, 10%, w/v in 20 mM HCl) and samples were shaken overnight. Absorbance of each well was measured at 570 nm in a Multiskan™ microplate spectrophotometer (Thermo Scientific).

[24] = tested on: primary monocytes from human peripheral blood; assay: MTT assay, cytotoxic activity; assay type: cell-based; settings: incubation 24 or 48 hours
Method: as §3
Human primary monocytes were isolated from leukocyte concentrates, obtained from the Institute of Transfusion Medicine at the University Hospital Jena, Germany. The concentrates were prepared from the blood of healthy adult human donors who had not taken any anti-inflammatory medication for the 10 days prior to blood donation, as described. In brief, freshly withdrawn peripheral blood was pretreated with citrate-phosphate-dextrose solution as anticoagulant and processed with the 2C+ protocol of the Atreus Whole Blood Processing System (Terum BCT). Peripheral blood mononuclear cells (PBMC) were isolated by dextran sedimentation and centrifugation on LSM 1077 lymphocyte separation medium (PAA Laboratories). For isolation of monocytes, the PBMC were washed twice with ice-cold phosphate buffered saline (PBS) and plated (density 2×10^7 cells/ml) in culture flasks (Greiner Bio-One) containing PBMC medium (RPMI 1640 medium supplemented with 100 U/ml penicillin, 100 μg/ml streptomycin and 2 mM L-glutamine) for 1.5 hours at 37° C., 5% CO2. Non-adherent cells were removed; adherent monocytes were scraped, washed with ice-cold PBS and resuspended in ice-cold PBS with a purity of >85%, defined by forward- and side-light scatter properties and detection of the CD14 surface molecule by flow cytometry (BD FACS Calibur). […]
Cells (3×10^5 Mono Mac 6, 1×10^5 A-549 cells, or 2×10^6 monocytes per well) were seeded in a 96-well plate in the respective medium (100 μl/well). […] Absorbance of each well was measured at 570 nm in a Multiskan™ microplate spectrophotometer (Thermo Scientific).

[25] = tested on: transformed lung epithelial A-549 cells; assay: MTT assay, cytotoxic activity; assay type: cell-based, human; settings: incubation 24 or 48 hours
Method: as §3, §4
Cells (3×10^5 Mono Mac 6, 1×10^5 A-549 cells, or 2×10^6 monocytes per well) were seeded in a 96-well plate in the respective medium (100 μl/well). Monocytes were allowed to adhere for 1.5 hours (37° C., 5% CO2) prior to treatment. Test compounds (0.3% DMSO as vehicle) were added to each well and samples were incubated for 48 hrs. Then, 20 μl of thiazolyl blue tetrazolium bromide (MTT, 5 mg/ml PBS) were added, and the incubation was continued at 37° C., 5% CO2 until blue staining of the vehicle control. Formazan formation was stopped by adding 100 μl of lysis buffer (SDS, 10%, w/v in 20 mM HCl) and samples were shaken overnight. Absorbance of each well was measured at 570 nm in a Multiskan™ microplate spectrophotometer (Thermo Scientific).

[26] = tested on: Pseudomonas aeruginosa DSM 50071; assay: MIC by microbroth dilution; assay type: cell-based; settings: 16 h, 30° C., n.i. = no inhibition up to 67 μg/ml
Method: as §1, §2

Compound: C/C=C(/C)[C@H]1C/C=C(\C)[C@@H](O[C@H]2O[C@H](CO)[C@@H](O)[C@@H]2O)[C@H](OC(=O)CC(C)C)C(=O)C[C@@H](OC)[C@H](C)C(=O)O1 [Compound 5, disciformycin C]
- MIC [1]: 4000 ng/mL (≈ 7190 nM)
- MIC [2]: 32000 ng/mL (≈ 57500 nM)
- MIC [3]: > 64000 ng/mL
- MIC [4]: > 64000 ng/mL
- MIC [5]: > 64000 ng/mL

Compound: C/C=C(/C)[C@H]1C/C=C(\C)[C@@H](O[C@H]2O[C@H](CO)[C@@H](O)[C@@H]2O)[C@H](OC(=O)CC(C)C)C(=O)C[C@@H](SC)[C@H](C)C(=O)O1 [Compound 6, disciformycin D]
- MIC [1]: 500 ng/mL (≈ 873 nM)
- MIC [2]: 4000 ng/mL (≈ 6980 nM)
- MIC [3]: 32000 ng/mL (≈ 55900 nM)
- MIC [4]: 32000 ng/mL (≈ 55900 nM)
- MIC [5]: 64000 ng/mL (≈ 112000 nM)

Compound: CN(C)[C@@H]1C(O)=C(C(N)=O)C(=O)[C@@]2(O)C(O)=C3C(=O)c4c(O)cccc4[C@@](C)(O)[C@H]3[C@H](O)[C@@H]12.Cl [Oxytetracyclin hydrochloride, reference compound]
- MIC [6]: 4.2^[a] μg/ml
- MIC [7]: 0.42^[a] μg/ml
- MIC [8]: 0.21^[a] μg/ml
- MIC [9]: ≤0.052^[a] μg/ml
- MIC [10]: 1.7^[a] μg/ml
- MIC [11]: 0.83^[a] μg/ml
- MIC [12]: 0.52^[a] μg/ml
- MIC [13]: 3.3^[a] μg/ml
- MIC [14]: 0.83^[a] μg/ml

Compound: CN[C@H](CC(C)C)C(=O)N[C@H]1C(=O)N[C@@H](CC(N)=O)C(=O)N[C@H]2C(=O)N[C@H]3C(=O)N[C@H](C(=O)N[C@H](C(=O)O)c4cc(O)cc(O)c4-c4cc3ccc4O)[C@H](O)c3ccc(c(Cl)c3)Oc3cc2cc(c3O[C@@H]2O[C@H](CO)[C@@H](O)[C@H](O)[C@H]2O[C@H]2C[C@](C)(N)[C@H](O)[C@H](C)O2)Oc2ccc(cc2Cl)[C@H]1O [Vancomycin, reference compound]
- MIC [15]: 830 ng/mL (≈ 573 nM)

Compound: CO[C@H]1/C=C/O[C@@]2(C)Oc3c(C)c(O)c4c(O)c(c(/C=N/N5CCN(C)CC5)c(O)c4c3C2=O)NC(=O)/C(C)=C\C=C\[C@H](C)[C@H](O)[C@@H](C)[C@@H](O)[C@@H](C)[C@H](OC(C)=O)[C@@H]1C [rifampicin, reference compound]
- MIC [16]: 1 ng/mL (≈ 1.22 nM)
- MIC [17]: 1 ng/mL (≈ 1.22 nM)
- MIC ([1]; S. aureus N315 WT, read-out: MIC): 3 ng/mL (≈ 3.65 nM)
- MIC [18]: 1 ng/mL (≈ 1.22 nM)
- MIC [2]: 1 ng/mL (≈ 1.22 nM)
- reduction of the number of intracellular bacteria [19]: ca. 4 logs
- MIC [3]: 3 ng/mL (≈ 3.65 nM)
- MIC [4]: 1 ng/mL (≈ 1.22 nM)
- MIC [20]: 1 ng/mL (≈ 1.22 nM)
- MIC [21]: 5 ng/mL (≈ 6.08 nM)
- MIC [22]: 1 ng/mL (≈ 1.22 nM)
- MIC [5]: 3 ng/mL (≈ 3.65 nM)

Compound: CN[C@@H]1C[C@H]2O[C@@](C)([C@@H]1OC)n1c3ccccc3c3c4c(c5c6ccccc6n2c5c31)C(=O)NC4 [staurosporine, reference compound]
- cell viability / cytotoxicity (MTT) [23]: highly cytotoxic
- cell viability / cytotoxicity (MTT) [24]: highly cytotoxic
- cell viability / cytotoxicity (MTT) [25]: highly cytotoxic

Compound: Gentamycin [reference compound]
- MIC [26]: 42.0^[b] μg/ml
